From patent US9708314B2, “Heterocyclic amide compound” (NISSAN CHEMICAL INDUSTRIES, LTD., priority 2013, dated 2017)

Tests used:
Assay type in all cases: in vivo
[1] = tested on: Echinochloa oryzacola Vasing.; assay: Test Example 1: herbicidal activity, application before weed generation in submerged conditions; settings: Application herbicide amount 320 g/ha; Seventeenth Table
In short: (§1)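 Pre-emergence water-surface application under 4 cm flooding, same day as sowing, with rice transplanted at 2.5 leaf stage. Dose given as g/ha. Plants grown at 25° C. to 30° C. and rated three weeks later on a 0 (≤5%) to 5 (≥90%) herbicidal-ratio scale.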

Monochoria vaginalis = assay: as above; settings: Application herbicide amount 320 g/ha; Seventeenth Table
In short: as §1

Scirpus juncoides = assay: as above; settings: Application herbicide amount 320 g/ha; Seventeenth Table
In short: as §1

[2] = tested on: transplanted Oryza sativa; assay: Test Example 1: effect on crop, application before weed generation in submerged conditions; settings: Application herbicide amount 320 g/ha; Seventeenth Table
In short: as §1

Abutilon theophrasti = assay: Test Example 4: herbicidal effect by application to foliage (diluvial soil, plastic box); settings: application to foliage, application herbicide amount 320 g/ha
In short: (§2)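 Seeds sown in sterilized diluvial soil, covered ~1.5 cm, grown 14 days in greenhouse at 25° C. to 30° C. Emulsion formulation diluted in water to set rate (g/ha) and sprayed onto stems and leaves. Effect scored visually 3 weeks later on 0–5 scale (5 = ≥90% herbicidal ratio, 0 = ≤5%).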

Alopecurus myosuroides = assay: as above; settings: application to foliage, application herbicide amount 320 g/ha
In short: as §2

Amaranthus retroflexus = assay: as above; settings: application to foliage, application herbicide amount 320 g/ha
In short: as §2

Apera spica-venti. = assay: as above; settings: application to foliage, application herbicide amount 320 g/ha
In short: as §2

Avena fatua = assay: as above; settings: application to foliage, application herbicide amount 320 g/ha
In short: as §2

Chenopodium album = assay: as above; settings: application to foliage, application herbicide amount 320 g/ha
In short: as §2

Digitaria ciliaris = assay: as above; settings: application to foliage, application herbicide amount 320 g/ha
In short: as §2

[3] = tested on: Echinochloa crus-galli var. crus-galli; assay: as above; settings: application to foliage, application herbicide amount 320 g/ha
In short: as §2

Galium spurium = assay: as above; settings: application to foliage, application herbicide amount 320 g/ha
In short: as §2

Lolium multiflorum Lam. = assay: as above; settings: application to foliage, application herbicide amount 320 g/ha
In short: as §2

Setaria viridis = assay: as above; settings: application to foliage, application herbicide amount 320 g/ha
In short: as §2

Stellaria media = assay: as above; settings: application to foliage, application herbicide amount 320 g/ha
In short: as §2

Veronica persica = assay: as above; settings: application to foliage, application herbicide amount 320 g/ha
In short: as §2

[4] = tested on: Beta vulgaris ssp. vulgaris; assay: Test Example 4: effect on crop by application to foliage (diluvial soil, plastic box); settings: application to foliage, application herbicide amount 320 g/ha
In short: as §2

Brassica campestris L. = assay: as above; settings: application to foliage, application herbicide amount 320 g/ha
In short: as §2

Glycine max = assay: as above; settings: application to foliage, application herbicide amount 320 g/ha
In short: as §2

Triticum aestivum = assay: as above; settings: application to foliage, application herbicide amount 320 g/ha
In short: as §2

Zea mays = assay: as above; settings: application to foliage, application herbicide amount 320 g/ha
In short: as §2

[5] = tested on: directly sowed Oryza sativa; assay: as above; settings: application to foliage, application herbicide amount 320 g/ha
In short: as §2

CSc1nnc2c(C(=O)Nc3nnnn3C)ccc(C(F)(F)F)n12 [2-013]
A: Echinochloa oryzicola Vasing. (herbicidal effect grade) [1]: 5 (Herbicidal ratio of 90% or more (almost completely withered)) | C: Monochoria vaginalis (herbicidal effect grade) (Monochoria vaginalis): 5 (Herbicidal ratio of 90% or more (almost completely withered)) | B: Scirpus juncoides (herbicidal effect grade) (Scirpus juncoides): 4 (Herbicidal ratio of 70% or more and less than 90%) | a: transplanted Oryza sativa (effect on crop grade) [2]: 3 (Herbicidal ratio of 40% or more and less than 70%) | M: herbicidal effect on Abutilon theophrasti (Abutilon theophrasti): 5 (Herbicidal ratio of 90% or more (almost completely withered)) | J: herbicidal effect on Alopecurus myosuroides (Alopecurus myosuroides): 3 (Herbicidal ratio of 40% or more and less than 70%) | N: herbicidal effect on Amaranthus retroflexus (Amaranthus retroflexus): 5 (Herbicidal ratio of 90% or more (almost completely withered)) | L: herbicidal effect on Apera spica-venti. (Apera spica-venti.): 4 (Herbicidal ratio of 70% or more and less than 90%) | I: herbicidal effect on Avena fatua (Avena fatua): 4 (Herbicidal ratio of 70% or more and less than 90%) | O: herbicidal effect on Chenopodium album (Chenopodium album): 5 (Herbicidal ratio of 90% or more (almost completely withered)) | F: herbicidal effect on Digitaria ciliaris (Digitaria ciliaris): 5 (Herbicidal ratio of 90% or more (almost completely withered)) | H: herbicidal effect on Echinochloa crus-galli var. crus-galli [3]: 5 (Herbicidal ratio of 90% or more (almost completely withered)) | Q: herbicidal effect on Galium spurium (Galium spurium): 4 (Herbicidal ratio of 70% or more and less than 90%) | K: herbicidal effect on Lolium multiflorum Lam. (Lolium multiflorum Lam.): 3 (Herbicidal ratio of 40% or more and less than 70%) | G: herbicidal effect on Setaria viridis (Setaria viridis): 5 (Herbicidal ratio of 90% or more (almost completely withered)) | P: herbicidal effect on Stellaria media (Stellaria media): 5 (Herbicidal ratio of 90% or more (almost completely withered)) | R: herbicidal effect on Veronica persica (Veronica persica): 4 (Herbicidal ratio of 70% or more and less than 90%) | f: effect on crop, Beta vulgaris ssp. vulgaris [4]: 5 (Herbicidal ratio of 90% or more (almost completely withered)) | g: effect on crop, Brassica campestris L. (Brassica campestris L.): 4 (Herbicidal ratio of 70% or more and less than 90%) | d: effect on crop, Glycine max (Glycine max): 4 (Herbicidal ratio of 70% or more and less than 90%) | e: effect on crop, Triticum aestivum (Triticum aestivum): 4 (Herbicidal ratio of 70% or more and less than 90%) | c: effect on crop, Zea mays (Zea mays): 3 (Herbicidal ratio of 40% or more and less than 70%) | b: effect on crop, directly sowed Oryza sativa [5]: 5 (Herbicidal ratio of 90% or more (almost completely withered))
